In EP4810038A1, “METHOD FOR TREATING ALK-POSITIVE OR ROS1-POSITIVE NON-SMALL CELL LUNG CANCER” (Shenzhen TargetRx Co., Ltd., priority 2023, dated 2025):

System: ALK-positive or ROS1-positive advanced non-small cell lung cancer
Assay: Phase I clinical trial, dose escalation and expansion phases: efficacy (RECIST 1.1)
Assay type: in vivo, human
Procedure: The anti-tumor efficacy is evaluated according to RECIST version 1.1. For patients initially evaluated as having a complete response (CR) or partial response (PR), efficacy should be confirmed at least 4 weeks later. In the patients with asymptomatic central nervous system (CNS) metastases, in addition to evaluating 5 extracranial target lesions, up to 5 intracranial target lesions will also be evaluated. The specific indicators are as follows:
"CR" is defined as the disappearance of all target lesions, and the diameters of the short axis of all the pathological lymph nodes (whether target or non-target lymph nodes) must be reduced to 10 mm or less.
"PR" is defined as a reduction of at least 30% in the total diameter of the target lesions, with the total diameter of the baseline as a reference value.
"PD" is defined as an increase of at least 20% in the total diameter of the target lesions, using the minimum total diameter in the study as a reference value (this value may include the total diameter of the baseline). In addition, the absolute value of the total diameter must increase by at least 5 mm (the appearance of one or more new lesions is also considered as progressive disease).
"SD" is defined as a state in which the reduction in target lesions is insufficient to achieve partial response and the increase is insufficient to achieve progressive disease.
"ORR" includes CR and PR, and is defined as the proportion of patients who achieve complete response or partial response.
"IC-ORR" includes CR or PR for confirmed intracranial lesions, and is defined as the proportion of the patients with complete response or partial response of intracranial lesions among the patients with intracranial lesions.
"DCR" is defined as the proportion of the patients who achieve response (PR+CR) and stable disease (SD) after a treatment.
"IC-DCR" is defined as the proportion of the patients who achieve intracranial response (PR+CR), intracranial stable disease (SD), and […] after a treatment among the patients with intracranial lesions.
"DOR" is defined as the time from the first assessment of CR or PR to progressive disease or death, and is only applicable to the patients who achieve response.
"IC-DOR" is defined as the time from the first assessment of intracranial CR or intracranial PR to progressive disease or death, and is only applicable to the patients whose intracranial lesions achieve response.
"TTR" is defined as the time from patient enrollment (first dose of investigational drug) to tumor response (CR/PR), based on the patients with objective response.
"IC-TTR" is defined as the time from patient enrollment (first dose of investigational drug) to intracranial tumor response (IC-CR/PR), based on the patients with intracranial objective response.
Approximately eight dose groups in total were set in the dose escalation phase, which were 5 (the starting dose), 10, 20, 40, 60, 80, 100, and 125 mg, respectively. Subjects in all the dose groups received a single dose on day 1 (D1), and the blood samples were collected for pharmacokinetic (PK) assay and tolerability observation. If no grade 2 or a higher-level adverse event related to the investigational drug occurred during the single-dose period (5 to 7 days) (if such events occurred, dose adjustments would be made based on the toxicity according to the protocol), the subject entered the multiple-dose period (i.e., treatment period) 5 to 7 days later (7 days after the first administration in the first dose group (i.e., starting the multiple-dose treatment on day 8), and the intervals for the subsequent dose groups were determined based on the obtained tolerability and PK data). […]

[2H]C([2H])([2H])n1nc2c(c1C#N)-c1cnc(N)c(c1)O[C@H](C)c1cc(F)ccc1C(=O)N(C)C2 [compound A, (10R)-7-amino-12-fluoro-2-(methyl-d3)-10,16-dimethyl-15-oxo-10,15,16,17-tetrahydro-2H-8,4-(metheno)pyrazolo[4,3-h][2,5,11]benzoxadiazacyclotetradecine-3-carbonitrile]
BOR CR (intracranial, 10mg (N=1)): 0 n (%)
BOR NE (intracranial, 10mg (N=1)): 0 n (%)
BOR PD (intracranial, 10mg (N=1)): 0 n (%)
BOR PR (intracranial, 10mg (N=1)): 1 (100) n (%)
BOR SD (intracranial, 10mg (N=1)): 0 n (%)
Confirmed IC-ORR (95% CI) (intracranial, 10mg (N=1)): 1 (100) (2.5, 100.0) n (%)
IC-DCR (95% CI) (intracranial, 10mg (N=1)): 1 (100) (2.5, 100.0) n (%)
Median IC-DOR (95% CI) (intracranial, 10mg (N=1)): 5.55 (-, -) months
Median IC-TTR (range) (intracranial, 10mg (N=1)): 1.35 (1.35, 1.35) months
BOR CR (intracranial, 20mg (N=1)): 0 n (%)
BOR NE (intracranial, 20mg (N=1)): 0 n (%)
BOR PD (intracranial, 20mg (N=1)): 0 n (%)
BOR PR (intracranial, 20mg (N=1)): 1 (100) n (%)
BOR SD (intracranial, 20mg (N=1)): 0 n (%)
Confirmed IC-ORR (95% CI) (intracranial, 20mg (N=1)): 1 (100) (2.5, 100.0) n (%)
IC-DCR (95% CI) (intracranial, 20mg (N=1)): 1 (100) (2.5, 100.0) n (%)
Median IC-TTR (range) (intracranial, 20mg (N=1)): 1.35 (1.35, 1.35) months
BOR CR (intracranial, 40mg (N=4)): 0 n (%)
BOR NE (intracranial, 40mg (N=4)): 1 (25.0) n (%)
BOR PD (intracranial, 40mg (N=4)): 0 n (%)
BOR PR (intracranial, 40mg (N=4)): 0 n (%)
BOR SD (intracranial, 40mg (N=4)): 3 (75.0) n (%)
Confirmed IC-ORR (95% CI) (intracranial, 40mg (N=4)): 0 (0.0, 60.2) n (%)
IC-DCR (95% CI) (intracranial, 40mg (N=4)): 3 (75.0) (19.4, 99.4) n (%)
BOR CR (intracranial, 60mg (N=2)): 0 n (%)
BOR NE (intracranial, 60mg (N=2)): 0 n (%)
BOR PD (intracranial, 60mg (N=2)): 0 n (%)
BOR PR (intracranial, 60mg (N=2)): 2 (100) n (%)
BOR SD (intracranial, 60mg (N=2)): 0 n (%)
Confirmed IC-ORR (95% CI) (intracranial, 60mg (N=2)): 2 (100) (15.8, 100.0) n (%)
IC-DCR (95% CI) (intracranial, 60mg (N=2)): 2 (100) (15.8, 100.0) n (%)
Median IC-DOR (95% CI) (intracranial, 60mg (N=2)): 17.97 (-, -) months
Median IC-TTR (range) (intracranial, 60mg (N=2)): 4.11 (1.35, 6.87) months
BOR CR (intracranial, 80mg (N=4)): 0 n (%)
BOR NE (intracranial, 80mg (N=4)): 1 (25.0) n (%)
BOR PD (intracranial, 80mg (N=4)): 0 n (%)
BOR PR (intracranial, 80mg (N=4)): 1 (25.0) n (%)
BOR SD (intracranial, 80mg (N=4)): 2 (50.0) n (%)
Confirmed IC-ORR (95% CI) (intracranial, 80mg (N=4)): 1 (25.0) (0.6, 80.6) n (%)
IC-DCR (95% CI) (intracranial, 80mg (N=4)): 3 (75.0) (19.4, 99.4) n (%)
Median IC-TTR (range) (intracranial, 80mg (N=4)): 1.51 (1.51, 1.51) months
BOR CR (intracranial, 100mg (N=2)): 0 n (%)
BOR NE (intracranial, 100mg (N=2)): 0 n (%)
BOR PD (intracranial, 100mg (N=2)): 0 n (%)
BOR PR (intracranial, 100mg (N=2)): 0 n (%)
BOR SD (intracranial, 100mg (N=2)): 2 (100) n (%)
Confirmed IC-ORR (95% CI) (intracranial, 100mg (N=2)): 0 (0.0, 84.2) n (%)
IC-DCR (95% CI) (intracranial, 100mg (N=2)): 2 (100) (15.8, 100.0) n (%)
BOR CR (intracranial, 125mg (N=1)): 0 n (%)
BOR NE (intracranial, 125mg (N=1)): 0 n (%)
BOR PD (intracranial, 125mg (N=1)): 0 n (%)
BOR PR (intracranial, 125mg (N=1)): 0 n (%)
BOR SD (intracranial, 125mg (N=1)): 1 (100) n (%)
Confirmed IC-ORR (95% CI) (intracranial, 125mg (N=1)): 0 (0.0, 97.5) n (%)
IC-DCR (95% CI) (intracranial, 125mg (N=1)): 1 (100) (2.5,100.0) n (%)
BOR CR (systemic, 5mg (N=1)): 0 n (%)
BOR NE (systemic, 5mg (N=1)): 0 n (%)
BOR PD (systemic, 5mg (N=1)): 0 n (%)
BOR PR (systemic, 5mg (N=1)): 0 n (%)
BOR SD (systemic, 5mg (N=1)): 1 (100) n (%)
Confirmed ORR (95% CI) (systemic, 5mg (N=1)): 0 (0.0, 97.5) n (%)
DCR (95% CI) (systemic, 5mg (N=1)): 1 (100) (2.5, 100.0) n (%)
BOR CR (systemic, 10mg (N=1)): 0 n (%)
BOR NE (systemic, 10mg (N=1)): 0 n (%)
BOR PD (systemic, 10mg (N=1)): 0 n (%)
BOR PR (systemic, 10mg (N=1)): 0 n (%)
BOR SD (systemic, 10mg (N=1)): 1 (100) n (%)
Confirmed ORR (95% CI) (systemic, 10mg (N=1)): 0 (0.0, 97.5) n (%)
DCR (95% CI) (systemic, 10mg (N=1)): 1 (100) (2.5, 100.0) n (%)
BOR CR (systemic, 20mg (N=1)): 0 n (%)
BOR NE (systemic, 20mg (N=1)): 0 n (%)
BOR PD (systemic, 20mg (N=1)): 0 n (%)
BOR PR (systemic, 20mg (N=1)): 1 (100) n (%)
BOR SD (systemic, 20mg (N=1)): 0 n (%)
Confirmed ORR (95% CI) (systemic, 20mg (N=1)): 1 (100) (2.5, 100.0) n (%)
DCR (95% CI) (systemic, 20mg (N=1)): 1 (100) (2.5, 100.0) n (%)
Median DOR (95% CI) (systemic, 20mg (N=1)): 6.93 (-, -) months
Median TTR (range) (systemic, 20mg (N=1)): 1.35 (1.35, 1.35) months
BOR CR (systemic, 40mg (N=10)): 0 n (%)
BOR NE (systemic, 40mg (N=10)): 2 (20.0) n (%)
BOR PD (systemic, 40mg (N=10)): 2 (20.0) n (%)
BOR PR (systemic, 40mg (N=10)): 1 (10.0) n (%)
BOR SD (systemic, 40mg (N=10)): 5 (50.0) n (%)
Confirmed ORR (95% CI) (systemic, 40mg (N=10)): 1 (10.0) (0.3, 44.5) n (%)
DCR (95% CI) (systemic, 40mg (N=10)): 6 (60.0) (26.2, 87.8) n (%)
Median TTR (range) (systemic, 40mg (N=10)): 2.73 (2.73, 2.73) months
BOR CR (systemic, 60mg (N=12)): 0 n (%)
BOR NE (systemic, 60mg (N=12)): 0 n (%)
BOR PD (systemic, 60mg (N=12)): 1 (8.3) n (%)
BOR PR (systemic, 60mg (N=12)): 6 (50.0) n (%)
BOR SD (systemic, 60mg (N=12)): 5 (41.7) n (%)
Confirmed ORR (95% CI) (systemic, 60mg (N=12)): 6 (50.0) (21.1, 78.9) n (%)
DCR (95% CI) (systemic, 60mg (N=12)): 11 (91.7) (61.5, 99.8) n (%)
Median DOR (95% CI) (systemic, 60mg (N=12)): 12.45 (2.79, -) months
Median TTR (range) (systemic, 60mg (N=12)): 1.35 (1.35, 6.90) months
BOR CR (systemic, 80mg (N=11)): 0 n (%)
BOR NE (systemic, 80mg (N=11)): 1 (9.1) n (%)
BOR PD (systemic, 80mg (N=11)): 1 (9.1) n (%)
BOR PR (systemic, 80mg (N=11)): 4 (36.4) n (%)
BOR SD (systemic, 80mg (N=11)): 5 (45.5) n (%)
Confirmed ORR (95% CI) (systemic, 80mg (N=11)): 4 (36.4) (10.9, 69.2) n (%)
DCR (95% CI) (systemic, 80mg (N=11)): 9 (81.8) (48.2, 97.7) n (%)
Median DOR (95% CI) (systemic, 80mg (N=11)): 12.48 (7.98, -) months
Median TTR (range) (systemic, 80mg (N=11)): 1.45 (1.35, 13.96) months
BOR CR (systemic, 100mg (N=3)): 0 n (%)
BOR NE (systemic, 100mg (N=3)): 0 n (%)
BOR PD (systemic, 100mg (N=3)): 0 n (%)
BOR PR (systemic, 100mg (N=3)): 2 (66.7) n (%)
BOR SD (systemic, 100mg (N=3)): 1 (33.3) n (%)
Confirmed ORR (95% CI) (systemic, 100mg (N=3)): 2 (66.7) (9.4, 99.2) n (%)
DCR (95% CI) (systemic, 100mg (N=3)): 3 (100) (29.2, 100.0) n (%)
Median DOR (95% CI) (systemic, 100mg (N=3)): 5.57 (4.17, -) months
Median TTR (range) (systemic, 100mg (N=3)): 2.05 (1.35, 2.76) months
BOR CR (systemic, 125mg (N=3)): 0 n (%)
BOR NE (systemic, 125mg (N=3)): 0 n (%)
BOR PD (systemic, 125mg (N=3)): 1 (33.3) n (%)
BOR PR (systemic, 125mg (N=3)): 1 (33.3) n (%)
BOR SD (systemic, 125mg (N=3)): 1 (33.3) n (%)
Confirmed ORR (95% CI) (systemic, 125mg (N=3)): 1 (33.3) (0.8, 90.6) n (%)
DCR (95% CI) (systemic, 125mg (N=3)): 2 (66.7) (9.4, 99.2) n (%)
Median DOR (95% CI) (systemic, 125mg (N=3)): 9.53 (-, -) months
Median TTR (range) (systemic, 125mg (N=3)): 1.38 (1.38, 1.38) months
